Data from patent US5140044A, “UCN-1028D derivatives” (Kyowa Hakko Kogyo Co., Ltd., priority 1989, dated 1992).
≈ marks a conversion by molar mass, not a printed value. Like-named read-outs stand apart in the source and are kept apart here.

Assays:
[1] = biological target: Protein Kinase C; assay: Protein kinase C inhibitory activity (method of Kikkawa et al.; crude enzyme from rat brain, Histone Type II S phosphorylation); type: biochemical; conditions: crude enzyme partially purified from rat brain; [γ-32P]ATP, 30° C., 3 minutes, pH 7.5
Experimental: Protein kinase C inhibitory activity
The protein kinase C inhibitory activity was measured by the method of Kikkawa, et al. [Journal of Biological Chemistry, 257, 13341 (1982)].
That is, 10 μl of a test solution containing a UCN-1028D derivative was added to 250 μl of a solution containing 2.5 μmoles of magnesium acetate, 50 μg of Histone Type II S (manufactured by Sigma Co., Ltd.), 20 μg of phosphatidyl serine, 0.8 μg of diolein, 25 nmoles of CaCl2, 5 μg of crude enzyme (partially purified from rat brain according to the method of Kikkawa, et al.) and 5 μmoles of Tris-hydrochloride buffer (pH 7.5), followed by incubation at 30° C. for 3 minutes. Then, phosphorylation was initiated by addition of 1.25 nmoles of [γ-^32 P]ATP (5 to 10×10^3 cpm/nmole), followed by incubation at 30° C. for 3 minutes The reaction was stopped by adding 25% trichloroacetic acid (TCA), and the reaction solution was filtered through a cellulose acetate membrane (pore size: 0.45 μm) (manufactured by Toyo Filter Paper Co., Ltd.). After the membrane was washed four times with 5% TCA, radioactivity remaining on the membrane was measured. As a control, the same procedure as above was repeated without addition of the test solution and radioactivity was likewise measured. The concentration of the test solution showing 50% inhibition as compared with the control was expressed as IC50.

[2] = system: BALB 3T3/H-ras; assay: Anti-tumor activity: growth inhibition of BALB 3T3 cells transformed with H-ras (Giemsa staining); type: cell-based; conditions: for IC50: Mus musculus, BALB/3T3, 72 h, read-out: IC50 BALB 3T3/H-ras Inhibitory Activity
Experimental: The anti-tumor activity was determined using BALB 3T3 cells transformed with the carcinogenic gene H-ras (hereafter referred to as BALB 3T3/H-ras).
BALB 3T3/H-ras cells were suspended in a medium comprising DME medium (manufactured by Nissui Pharmaceutical Co., Ltd.) and 10% fetal calf serum (hereafter referred to as medium A) to a concentration of 3.0×10^4 /cells ml. The cell suspension thus prepared was put into wells of a 96-well microtiter plate in an amount of 0.1 ml per well. After culturing at 37° C. for 20 hours in a CO2 -incubator, 0.1 ml each of a test solution appropriately diluted with medium A was added to each well. The cells were further cultured at 37° C. for 72 hours in the CO2 -incubator and the culture supernatant was removed. After being washed once with physiological saline, the residue was treated with 0.1 ml of methanol for 10 minutes to fix the cells. Thereafter, the cells were stained with 0.1 ml of Giemsa staining solution [Giemsa staining stock solution (Merck Art 9204; manufactured by Merck Inc.) : physiological saline=1 : 10] for 5 minutes. After the staining solution was removed, the residue was washed once with 0.2 ml of water. The pigment was extracted with 0.2 ml of 0.1 N hydrochloric acid and the absorbance at 620 nm was measured with a microplate reader. By comparing the absorbance of untreated cells with those of the cells treated with the test compound at known concentrations, the concentration of the test compound at which the growth of the cells is inhibited by 50% (IC50) was calculated.

[3] = growth inhibition, 72 hours, 37° C., Giemsa staining, absorbance at 620 nm

SMILES	IC50 Protein Kinase C Inhibitory Activity [1] [µg/mL]	IC50 [2] [µg/mL]	IC50 BALB 3T3/H-ras Inhibitory Activity [2, 3] [µg/mL]	IC50 [2, 3] [µg/mL]
COc1ccc(C(=O)O[C@H](C)Cc2c(OC)c(=O)c3c(O)cc(OC)c4c5c(OC)cc(O)c6c(=O)c(OC)c(C[C@@H](C)OC(=O)c7ccc(OC)cc7)c(c2c34)c65)cc1 [Compound 27, 14,17-bis-O-p-methoxybenzoyl UCN-1028D]	0.05 (≈ 0.0611 µM)	0.026 (≈ 0.0318 µM)		
COC(=O)c1ccc(C(=O)O[C@H](C)Cc2c(OC)c(=O)c3c(O)cc(OC)c4c5c(OC)cc(O)c6c(=O)c(OC)c(C[C@@H](C)OC(=O)c7ccc(C(=O)OC)cc7)c(c2c34)c65)cc1 [Compound 28, 14,17-bis-O-p-methoxycarbonylbenzoyl UCN-1028D]	0.084 (≈ 0.096 µM)	0.068 (≈ 0.0777 µM)		
COc1c(C[C@@H](C)OC(=O)c2ccc(C)cc2)c2c3c(C[C@@H](C)OC(=O)c4ccc(C)cc4)c(OC)c(=O)c4c(O)cc(OC)c(c5c(OC)cc(O)c(c1=O)c52)c43 [Compound 29, 14,17-bis-O-p-methylbenzoyl UCN-1028D]	0.06 (≈ 0.0763 µM)	0.022 (≈ 0.028 µM)		
COc1c(C[C@@H](C)OC(=O)c2ccc([N+](=O)[O-])cc2)c2c3c(C[C@@H](C)OC(=O)c4ccc([N+](=O)[O-])cc4)c(OC)c(=O)c4c(O)cc(OC)c(c5c(OC)cc(O)c(c1=O)c52)c43 [Compound 30, 14,17-bis-O-p-nitrobenzoyl UCN-1028D]	0.11 (≈ 0.13 µM)	0.07 (≈ 0.0825 µM)		
COc1c(C[C@@H](C)OC(=O)c2cccc3ccccc23)c2c3c(C[C@@H](C)OC(=O)c4cccc5ccccc45)c(OC)c(=O)c4c(O)cc(OC)c(c5c(OC)cc(O)c(c1=O)c52)c43 [Compound 31, 14,17-di-O-1-naphthoyl UCN-1028D]	0.19 (≈ 0.221 µM)	1.5 (≈ 1.75 µM)		
COc1c(C[C@@H](C)OC(=O)c2ccc3ccccc3c2)c2c3c(C[C@@H](C)OC(=O)c4ccc5ccccc5c4)c(OC)c(=O)c4c(O)cc(OC)c(c5c(OC)cc(O)c(c1=O)c52)c43 [Compound 32, 14,17-di-O-2-naphthoyl UCN-1028D]	0.1 (≈ 0.116 µM)	1.2 (≈ 1.4 µM)		
COc1c(C[C@@H](C)OC(=O)c2ccncc2)c2c3c(C[C@@H](C)OC(=O)c4ccncc4)c(OC)c(=O)c4c(O)cc(OC)c(c5c(OC)cc(O)c(c1=O)c52)c43 [Compound 33, 14,17-di-O-isonicotinyl UCN-1028D]	0.15 (≈ 0.197 µM)	0.038 (≈ 0.05 µM)		
COc1c(C[C@@H](C)OC(=O)c2ccco2)c2c3c(C[C@@H](C)OC(=O)c4ccco4)c(OC)c(=O)c4c(O)cc(OC)c(c5c(OC)cc(O)c(c1=O)c52)c43 [Compound 35, 14,17-di-O-2-furoyl UCN-1028D]	0.11 (≈ 0.149 µM)	0.12 (≈ 0.162 µM)		
COC(=O)O[C@H](C)Cc1c(OC)c(=O)c2c(O)cc(OC)c3c4c(OC)cc(O)c5c(=O)c(OC)c(C[C@@H](C)OC(=O)OC)c(c1c23)c54 [Compound 36, 14,17-bis-O-methoxycarbonyl UCN-1028D]	0.29 (≈ 0.435 µM)	0.13 (≈ 0.195 µM)		
COc1c(C[C@@H](C)OC(=O)OCc2ccccc2)c2c3c(C[C@@H](C)OC(=O)OCc4ccccc4)c(OC)c(=O)c4c(O)cc(OC)c(c5c(OC)cc(O)c(c1=O)c52)c43 [Compound 37, 14,17-bis-O-benzyloxycarbonyl UCN-1028D]	0.052 (≈ 0.0635 µM)	0.04 (≈ 0.0489 µM)		
COc1c(C[C@@H](C)OC(=O)Oc2ccccc2)c2c3c(C[C@@H](C)OC(=O)Oc4ccccc4)c(OC)c(=O)c4c(O)cc(OC)c(c5c(OC)cc(O)c(c1=O)c52)c43 [Compound 38, 14,17-bis-O-phenyloxycarbonyl UCN-1028D]	0.058 (≈ 0.0733 µM)	0.015 (≈ 0.019 µM)		
COc1c(C[C@@H](C)OS(C)(=O)=O)c2c3c(C[C@@H](C)OS(C)(=O)=O)c(OC)c(=O)c4c(O)cc(OC)c(c5c(OC)cc(O)c(c1=O)c52)c43 [Compound 39, 14,17-bis-O-methanesulfonyl UCN-1028D]	0.5 (≈ 0.707 µM)	0.35 (≈ 0.495 µM)		
COc1c(C[C@@H](C)OS(=O)(=O)c2ccc(C)cc2)c2c3c(C[C@@H](C)OS(=O)(=O)c4ccc(C)cc4)c(OC)c(=O)c4c(O)cc(OC)c(c5c(OC)cc(O)c(c1=O)c52)c43 [Compound 40, 14,17-bis-O-p-toluenesulfonyl UCN-1028D]	0.066 (≈ 0.0768 µM)	0.04 (≈ 0.0466 µM)		
CCCNC(=O)O[C@H](C)Cc1c(OC)c(=O)c2c(O)cc(OC)c3c4c(OC)cc(O)c5c(=O)c(OC)c(C[C@@H](C)OC(=O)NCCC)c(c1c23)c54 [Compound 41, 14,17-bis-O-propylaminocarbonyl UCN-1028D]	0.94 (≈ 1.3 µM)	0.68 (≈ 0.943 µM)		
COc1c(C[C@@H](C)OC(=O)Nc2ccccc2)c2c3c(C[C@@H](C)OC(=O)Nc4ccccc4)c(OC)c(=O)c4c(O)cc(OC)c(c5c(OC)cc(O)c(c1=O)c52)c43 [Compound 42, 14,17-bis-O-phenylaminocarbonyl UCN-1028D]	0.021 (≈ 0.0266 µM)	0.075 (≈ 0.0951 µM)		
COc1c(C[C@@H](C)O)c2c3c(C[C@@H](C)O)c(OC)c(=O)c4c(O)cc(OC)c(c5c(OC)cc(O)c(c1=O)c52)c43 [Compound 43, UCN-1028 iso-D]	0.74 (≈ 1.34 µM)		1.0 (≈ 1.82 µM)	
COc1c(C[C@@H](C)OC(=O)c2ccccc2)c2c3c(C[C@@H](C)OC(=O)c4ccccc4)c(OC)c(=O)c4c(O)cc(OC)c(c5c(OC)cc(O)c(c1=O)c52)c43 [Compound 44, 14,17-di-O-benzoyl UCN-1028 iso-D]	0.025 (≈ 0.0329 µM)			0.52 (≈ 0.685 µM)
COc1c(C[C@@H](C)O)c2c3c(C[C@@H](C)O)c(OC)c(=O)c4c(O)cc(OC)c(c5c(OC)cc(O)c(c1=O)c52)c43 [Compound 45, UCN-1028D]	3.5 (≈ 6.36 µM)		2.2 (≈ 4 µM)	
